For test [1], the target named is T1, nanobit-large-bit-ERK2 and nanobit-small-bit-PEA15 in WM793 cells (Homo sapiens, UniProt P28482).
T1 construct: expressed in transfected cells
In words: NanoBiT assay. The note with it: WM793 nanobit stable cell line, overnight incubation; read-out: NanoBiT qualified absolute AC50. The format is cell-based. As to the method:
(§1) Cancer cell media was prepared by adding 500 mL of RPMI (ThermoFisher cat ##22400-089) and 10% Fetal Bovine Serum (Gibco) for WM793 cells (ATCC Cat #CRL-2806, RRID: CVCL 8787) and F12K (Thermo Fisher cat #21127-022, 500 mL; or 21127-030, 10×500 mL)+10% FBS for PC3 (ATCC CRL-1435) cells. The entire media with supplements was filter sterilized through a 0.4 μm bottle top filter system. Cancer cell lines were detached from traditional cell culture flasks by washing three times with 1×PBS and adding an appropriate amount of 0.25% TrypLE™ Express Enzyme (1×), no phenol red (ThermoFisher cat #12604013) to create a thin layer over the cells. Trypsin was neutralized with media containing serum and proceeded to count the cells.
A nanobit stable cell line was generated using WM793 cells with nanobit-large-bit-ERK2 and nanobit-small-bit-PEA15. […] In a biological safety cabinet, cells were seeded using a sterilized small stainless steel tipped cassette on a Multi-drop Combi. Between different cell lines, the tubing of the cassette was flushed with 1× sterile PBS for 10 s. Alternatively, cells can be seeded using a Multi-flow located within a Hepa filtered robotics room using either a sterilized small sapphire jewel tipped cassette and the peristatic pump, or the attached syringe pump, depending on volume of plates per cell line needed. The plates were placed in an incubator set at 37° C., with 5% CO2 and 95% relative humidity. A 10-point, 3-fold serial dilution of compounds was prepared in 100% DMSO on a liquid handling robot with a 10 mM top concentration. 90 nl/well was dispensed in three assay plates/1 compound source plate, with the highest concentration at 30 μM. After addition of compound was complete, the plates were placed into an incubator at 37° C., with 5% CO2 and 95% relative humidity for overnight. Luminescence was captured on a plate luminometer such as an Envision or View Lux to measure Day 0 time point both select cell lines. LUM plus, gain 3500, 0.1 s and focal height 12.5 [mm] on PheraStar reader. The raw data was extracted from the instrument and normalized all fields containing test compounds to the average of all wells containing DMSO alone as neutral control. From this value, the percent growth inhibition was calculated for each compound. Dose response curves and inhibitory IC50s were generated by graphing the normalized data values against the compound concentration using either a program such as GraphPad™ or Excel Fit.

In test [2] the target is T2, ERK2[2-360(p-T185/p-Y187)]-Avi (Homo sapiens, UniProt P28482).
T2 construct: 400 pM ERK2[2-360(p-T185/p-Y187)]-Avi was added to the plate
T2 sequence (P28482 2-360 limits assumed): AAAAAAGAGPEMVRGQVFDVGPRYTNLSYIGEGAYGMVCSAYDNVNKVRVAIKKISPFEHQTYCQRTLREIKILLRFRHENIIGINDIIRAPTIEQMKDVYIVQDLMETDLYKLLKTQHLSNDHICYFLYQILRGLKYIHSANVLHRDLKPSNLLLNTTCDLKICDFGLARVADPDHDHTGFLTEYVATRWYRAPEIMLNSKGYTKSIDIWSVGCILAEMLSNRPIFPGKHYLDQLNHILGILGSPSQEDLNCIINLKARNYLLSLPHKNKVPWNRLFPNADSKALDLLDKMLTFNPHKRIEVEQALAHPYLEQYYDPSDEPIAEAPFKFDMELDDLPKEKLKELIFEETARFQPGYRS
In words: Biochemical assay (HTRF competition assay). The note with it: HTRF competition with Example 15 probe, overnight at RT; read-out: Biochemical qualified AC50. Type of test: binding. As to the method: The competition assays were performed at RT in a 384-well white polystyrene, flat bottom plate (Greiner #784075) using a final reaction volume of 15 μL and the following assay buffer conditions: 50 mM MOPS, pH 7.2, 10 mM MgCl2, 0.5 mM TCEP, 0.01% Triton-X-100. 75 nL of a 10 mM compound solution in DMSO or 100% DMSO (12 point titration, final concentration: 50 μM-300 pM; final DMSO: 0.5%) was added using an acoustic liquid handler (Echo, Beckman Coulter) to wells containing 7.5 μL of 1-(6-((R)-3-(1-(5-chloro-1-((tetrahydro-2H-pyran-4-yl)methyl)-1H-indole-3-carbonyl)-4-(4-fluorophenyl)piperidine-4-carboxamido)pyrrolidin-1-yl)-6-oxohexyl)-3,3-dimethyl-5-sulfo-2-((1E,3E)-5-((E)-1,3,3-trimethyl-5-sulfoindolin-2-ylidene)penta-1,3-dien-1-yl)-3H-indol-1-ium (Example 15); 7.5 μL 400 pM SA-Tb (Cisbio, 610SATLB) and 400 pM ERK2[2-360(p-T185/p-Y187)]-Avi was added to the plate and incubated overnight at RT. HTRF signal was measured using a microplate reader (PheraStar, BMG Labtech) with excitation and emission wavelengths of […], respectively. The inhibitor dose-response curves were analyzed from the HTRF ratio signal using normalized IC50 regression curve fitting with control-based normalization.
Background: Time-resolved FRET reads energy transfer from a long-lived donor to a nearby acceptor.

Another test concerns WM793 cells. In words: Cell proliferation assay (CellTiter-Glo). The format is cell-based. The note with it: 3 d, read-out: Cell proliferation qualified AC50. As to the method:
as §1
After counting the cells, the concentration of the cell solution was adjusted to seed a total of 750 cells per well in 50 μL of complete media into 384-well tissue culture treated plates. In a biological safety cabinet, cells were seeded using a sterilized small stainless steel tipped cassette on a Multi-drop Combi. Between different cell lines, the tubing of the cassette was flushed with 1× sterile PBS for 10 seconds. Alternatively, cells can be seeded using a Multi-flow located within a Hepa filtered robotics room using either a sterilized small sapphire jewel tipped cassette and the peristatic pump, or the attached syringe pump, depending on volume of plates per cell line needed. The plates were placed in an incubator set at 37° C., with 5% CO2 and 95% relative humidity. A 10-point, 3-fold serial dilutions of compounds in 100% DMSO was prepared on a liquid handling robot with a 10 mM top concentration. 100 nL/well in three assay plates/1 compound was dispensed to source plate, with the highest concentration at 20 μM. After addition of compound was complete, plates were placed into an incubator at 37° C., with 5% CO2 and 95% relative humidity for 3 d. An adequate volume of CellTiter-Glo® (Promega #G7571) detection reagent was pre-warmed to RT or in a 37° C. H2O bath. 25 μL of the reagent was added to each well using either a Multi-drop Combi or MultiFlo and incubate at RT for at least 15 min. Luminesce was captured on a plate luminometer such as an Envision or View Lux to measure Day 0 time point both select cell lines. LUM plus, gain 3500, 0.1 s and focal height 12.5 mm on PheraStar reader. At Day 3, an adequate volume of CellTiter-Glo® detection reagent was pre-warmed at RT or in a 37° C. H2O bath. A total of 25 μL of the reagent was added to each well using either a Multi-drop Combi or MultiFlo and incubate at RT for at least 15 min. Luminesce was captured on a plate luminometer such as an Envision or View Lux to measure Day 3 time point both select cell lines. LUM plus, gain 3500, 0.1 s and focal height 12.5 mm on PheraStar reader. Raw data was extracted from the instrument and all fields containing test compounds were normalized to the average of all wells containing DMSO alone from Day 3 as neutral control and Day 0 starting numbers. From this value, percent growth inhibition of each compound was calculated. Dose response curves and growth inhibitory IC50s were generated by graphing the normalized data values against the compound concentration using a program such as GraphPad™ or Excel Fit.
In general terms: Cellular ATP, detected with luciferase, serves as a proxy for viable cell number.

Read-outs that look alike come from different tables or passages of the source.

T1 sequence (P28482 whole entry): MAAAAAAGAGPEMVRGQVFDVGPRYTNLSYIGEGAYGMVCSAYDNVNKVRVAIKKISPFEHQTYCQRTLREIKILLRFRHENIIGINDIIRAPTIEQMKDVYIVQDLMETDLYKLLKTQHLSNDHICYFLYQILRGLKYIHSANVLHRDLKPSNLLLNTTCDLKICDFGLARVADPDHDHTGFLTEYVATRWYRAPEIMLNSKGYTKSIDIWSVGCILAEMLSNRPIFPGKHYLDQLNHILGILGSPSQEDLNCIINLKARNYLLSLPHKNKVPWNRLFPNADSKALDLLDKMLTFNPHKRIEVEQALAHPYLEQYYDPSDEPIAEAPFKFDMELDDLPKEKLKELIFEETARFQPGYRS

`CCO[C@H]1CC[C@H](Cc2c(C)n(C(=O)N3CC[C@@](C(=O)N[C@H]4CC[C@H](C(=O)O)C[C@@H]4C)(c4ccc(F)cc4)C[C@@H]3C)c3cc(F)ccc23)OC1` (mixture of isomers) [Example 8, (1S,3S,4S)-4-((2S,4S)-1-(3-((trans-5-ethoxytetrahydro-2H-pyran-2-yl)methyl)-6-fluoro-2-methyl-1H-indole-1-carbonyl)-4-(4-fluorophenyl)-2-methylpiperidine-4-carboxamido)-3-methylcyclohexane-1-carboxylic acid]: the AC50 in test [1] is 31 nM; in test [2], less than 0.28 nM; in the test on WM793 cells (Homo sapiens, WM793, 72 h), 15 nM.
As for `C[C@H]1C[C@@H](C(=O)O)CC[C@@H]1NC(=O)[C@@]1(c2ccc(F)cc2)CCN(C(=O)N2CC([C@H]3CC[C@H](OC4CCOCC4)CC3)c3ccc(F)cc32)[C@@H](C)C1` (single isomer, unassigned) [Example 4a], the AC50 in test [1] amounted to 24 nM; in test [2], 0.87 nM; in the test with WM793 cells (Homo sapiens, WM793, 72 h), 4 nM.
Consider `CC(C)O[C@H]1CC[C@H](C2CN(C(=O)N3CC[C@@](C(=O)N[C@H]4CC[C@H](C(=O)O)C[C@@H]4C)(c4ccc(F)cc4)C[C@@H]3C)c3cc(F)ccc32)CC1` (single isomer, unassigned) [Example 4c], for which the AC50 in test [1] stood at 1200 nM; in test [2], 3.9 nM; in the test on WM793 cells (Homo sapiens, WM793, 72 h), 410 nM.
As to `CCOC1CCC(Cc2c(C)n(C(=O)N3CC[C@@](C(=O)N[C@H]4CC[C@H](C(=O)O)C[C@@H]4C)(c4ccc(F)cc4)C[C@@H]3C)c3cc(F)ccc23)OC1` (single isomer, unassigned) [Example 8a], the AC50 in test [1] is 28 nM; in test [2], less than 0.28 nM; with WM793 cells (Homo sapiens, WM793, 72 h) it was 13 nM.
The like results for `C[C@H]1C[C@@H](C(=O)O)CC[C@@H]1NC(=O)[C@@]1(c2ccc(F)cc2)CCN(C(=O)n2c3c(c4ccc(F)cc42)C(C2CCOCC2)OCC3)[C@@H](C)C1` (single isomer, unassigned) [Example 10] were, in that order, 280 nM, less than 0.28 nM and 40 nM.
Consider `C[C@H]1C[C@@H](C(=O)O)CC[C@@H]1NC(=O)C1(c2ccc(F)cc2)CCN(C(=O)n2c3c(c4ccc(F)cc42)[C@H](c2ccccc2)OCC3)CC1` (single isomer, unassigned) [Example 10a], for which the AC50 in test [1] amounted to 88 nM; in test [2], 0.35 nM; in the test on WM793 cells (Homo sapiens, WM793, 72 h) it was 77 nM.
As to `C[C@H]1C[C@@H](C(=O)O)CC[C@@H]1NC(=O)C1(c2ccc(F)cc2)CCN(C(=O)n2c3c(c4ccc(F)cc42)[C@@H](c2ccccc2)OCC3)CC1` (single isomer, unassigned) [Example 10b], the AC50 in test [1] was 12000 nM; in test [2], 37 nM; in the test on WM793 cells (Homo sapiens, WM793, 72 h) it was 10000 nM.
For `Cc1c(C[C@H]2CC[C@H](OC(C)C)CC2)c2ccc(F)cc2n1C(=O)N1CCC(C(=O)N[C@H]2CC[C@H](C(=O)O)C[C@@H]2C)(c2ccc(F)cc2)CC1` [Example 1, (1S,3S,4S)-4-(1-(6-fluoro-3-(((1r,4S)-4-isopropoxycyclohexyl)methyl)-2-methyl-1H-indole-1-carbonyl)-4-(4-fluorophenyl)piperidine-4-carboxamido)-3-methylcyclohexane-1-carboxylic acid], the AC50 came to 100 nM in test [1], 0.33 nM in test [2] and 110 nM in the test with WM793 cells.
For the compound `CCc1c(C[C@H]2CC[C@H](OC3CCOCC3)CC2)c2ccc(F)cc2n1C(=O)N1CC[C@@](C(=O)N[C@H]2CC[C@H](C(=O)O)C[C@@H]2C)(c2ccc(F)c(F)c2)C[C@@H]1C` [Example 1a], the AC50 in test [1] was 160 nM; in test [2], less than 0.28 nM; in the test with WM793 cells (Homo sapiens, WM793, 72 h), 10 nM.
For the compound `CN1CC[C@@H](NC(=O)C2(c3ccccc3)CCN(C(=O)c3c(C=O)n(CC4CCOCC4)c4ccc(Cl)cc34)CC2)C1` [Example 11a], the AC50 turned out to be 0.87 nM in test [2] and 300 nM in the test on WM793 cells (Homo sapiens, WM793, 72 h).
With `C[C@H]1[C@@H](NC(=O)C2(c3ccc(F)cc3)CCN(C(=O)c3c(C=O)n(CC4CCOCC4)c4ccc(Cl)cc34)CC2)CN1C` [Example 11c], the AC50 in the test on WM793 cells (Homo sapiens, WM793, 72 h) is 17 nM.
`CN1CCC(NC(=O)C2(c3ccc(F)cc3)CCN(C(=O)c3c(C=O)n(CC4CCOCC4)c4ccc(Cl)cc34)CC2)CC1` [Example 11d]: the AC50 in the test with WM793 cells (Homo sapiens, WM793, 72 h) stood at 430 nM.
On to `CN1CC(NC(=O)C2(c3ccc(F)cc3)CCN(C(=O)c3c(C=O)n(CC4CCOCC4)c4ccc(Cl)cc34)CC2)C1` [Example 11e], for which the AC50 with WM793 cells (Homo sapiens, WM793, 72 h) came to 290 nM.
`CN1CC[C@@H](NC(=O)C2(c3ccc(F)cc3)CCN(C(=O)c3c(C=O)n(CC4CCOCC4)c4ccc(Cl)cc34)CC2)C1` [Example 11f]: in the test with WM793 cells (Homo sapiens, WM793, 72 h), the AC50 came out at 140 nM.
With `CN1C[C@@H](F)[C@@H](NC(=O)C2(c3ccc(F)cc3)CCN(C(=O)c3c(C(F)F)n(CC4CCOCC4)c4ccc(Cl)cc34)CC2)C1` [Example 11i], the AC50 was found to be 0.72 nM in test [2] and 54 nM with WM793 cells (Homo sapiens, WM793, 72 h).
Turning to `CN1C[C@@H](F)[C@@H](NC(=O)C2(c3ccc(F)cc3)CCN(C(=O)c3c(C#N)n(CC4CCOCC4)c4ccc(Cl)cc34)CC2)C1` [Example 11j], the AC50 is 0.97 nM in test [2] and 730 nM in the test with WM793 cells (Homo sapiens, WM793, 72 h).
Regarding `O=Cc1c(C(=O)N2CCC(C(=O)N[C@H]3CNC[C@H]3F)(c3ccc(F)cc3)CC2)c2cc(Cl)ccc2n1CC1CCOCC1` [Example 14, 1-(5-chloro-2-formyl-1-((tetrahydro-2H-pyran-4-yl)methyl)-1H-indole-3-carbonyl)-4-(4-fluorophenyl)-N-((3S,4R)-4-fluoropyrrolidin-3-yl)piperidine-4-carboxamide], the AC50 in test [2] was 0.48 nM; with WM793 cells (Homo sapiens, WM793, 72 h) it was 120 nM.
